According to ChEMBL document CHEMBL4024726, “An integrated approach towards the discovery of novel non-nucleoside Leishmania major pteridine reductase 1 inhibitors” (Eur J Med Chem, 2017):
Activity calls are given as the source filed them. The calls are words filed in the database; no cut-off is given here.

Assays:
[1] = target: T1, Pteridine reductase 1 (Leishmania major) (UniProt Q01782); experiment: Binding affinity to Leishmania major PTR1 BL21(DE3) assessed as change in melting temperature at 50 uM by SYPRO orange dye based RT-PCR analysis
T1 sequence (whole entry): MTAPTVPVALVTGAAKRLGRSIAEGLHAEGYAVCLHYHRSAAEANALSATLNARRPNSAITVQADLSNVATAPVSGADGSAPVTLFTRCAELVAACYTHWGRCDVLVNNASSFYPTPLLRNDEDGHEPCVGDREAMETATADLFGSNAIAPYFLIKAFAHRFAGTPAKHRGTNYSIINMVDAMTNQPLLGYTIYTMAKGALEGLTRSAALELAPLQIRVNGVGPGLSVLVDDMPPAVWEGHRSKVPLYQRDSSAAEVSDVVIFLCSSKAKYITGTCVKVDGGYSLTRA

[2] = target: T1, Pteridine reductase 1 (Leishmania major); experiment: Binding affinity to Leishmania major PTR1 BL21(DE3) assessed as change in melting temperature by SYPRO orange dye based RT-PCR analysis
[3] = target: T1, Pteridine reductase 1 (Leishmania major); experiment: Competitive inhibition of Leishmania major PTR1 assessed as decrease in thermal shift stabilization at 1 mM in presence of varying levels of biopterin and constant NADPH level by spectrofluorimetric method
[4] = target: T1, Pteridine reductase 1 (Leishmania major); experiment: Competitive inhibition of Leishmania major PTR1 assessed as decrease in thermal shift stabilization at 1 mM in presence of saturating concentration of biopterin and varying levels of NADPH by spectrofluorimetric method
[5] = target: T1, Pteridine reductase 1 (Leishmania major); experiment: Inhibition of Leishmania major PTR1 at 50 uM using biopterin as substrate and NADPH as cofactor by spectrofluorimetric method relative to control
Pteridine reductase 1 = target: T2, Pteridine reductase 1 (Leishmania major, UniProt Q01782); experiment: Inhibition of Leishmania major PTR1 using biopterin as substrate and NADPH as cofactor by spectrofluorimetric method
T2 sequence (Q01782 whole entry): T1 sequence (whole entry)

[6] = target: T1, Pteridine reductase 1 (Leishmania major); experiment: Noncompetitive inhibition of Leishmania major PTR1 at 1 mM in presence of saturating concentration of biopterin and varying levels of NADPH by spectrofluorimetric method
[7] = target: T1, Pteridine reductase 1 (Leishmania major); experiment: Noncompetitive inhibition of Leishmania major PTR1 at 1 mM in presence of varying levels of biopterin and constant NADPH level by spectrofluorimetric method

Row | ΔTm [1] [°C] | Activity [2] | inhibition [3] | inhibition [4] | inhibition [5] [%] | IC50 (Pteridine reductase 1) [µM] | inhibition [6] | inhibition [7] | SMILES
1 | 1.02 | Dose-dependent effect | Active | Active | > 50 | 32.3 | – | – | Cc1sc2ncnc(N/N=C/c3ccccc3)c2c1C
2 | 0.91 | Dose-dependent effect | – | – | – | – | Active | Active | CC(N(C)Cc1nc2ccccc2c(=O)[nH]1)C(C)(C)C (stereo not given)
